Assay results from US7863255B2, “Methods of administering antitumor agent comprising deoxycytidine derivative” (Taiho Pharmaceutical Co., Ltd., priority 2008, dated 2011).
One block for each compound: values may come before it.

Experiments:
[1] = test system: human colon cancer line KM20C; assay: Antitumor effect of continuous intravenous infusion of CNDAC and gemcitabine in tumor-bearing rats; type: in vivo, rat
Procedure: The antitumor effect was studied in a continuous intravenous infusion of CNDAC and gemcitabine administered to tumor-bearing rats having the human colon cancer line KM20C. FIG. 2 indicates the results.
CNDAC was administered by continuous intravenous infusion (continuously injected under the skin for 24 hours using a subcutaneous implantation constant-speed pump) in an amount of 36 mg/kg/day on Days 1 and 8, or 4.5 mg/kg/day on Days 1 to 14. Alternatively, gemcitabine was administered by rapid intravenous infusion in an amount of 300 mg/kg/day once a week for two weeks (Days 1 and 8), or by continuous intravenous infusion in an amount of 1.0 mg/kg/day for two weeks. Relative tumor volume was obtained and compared in a drug administered group and a non-administered group (control group) of each administration method.

[2] = test system: patients having a variety of solid cancers; assay: Clinical Phase I equivalent test, continuous intravenous infusion for 336 hours once every three weeks; type: in vivo, human
Procedure: The frequency of adverse events and treatment effect were studied in a case where a course was repeatedly performed in which the antitumor agent was administered to cancer patients by continuous intravenous infusion in an amount of 2.0 to 4.0 mg/m^2 of CNDAC (free base) for a duration of 336 hours once every three weeks.
(§1) The present test was conducted on patients having a variety of solid cancers for which standard treatment was ineffective or no treatment was available (e.g., digestive system cancer, head and neck cancer, breast cancer, and the like). The test is equivalent to the Clinical Phase I Test, which primarily evaluates safety so as to determine a recommended dose (RD) that can be safely administered with no side effect concerns in the Clinical Phase II Test implemented per cancer type. Treatment effect on tumors was also evaluated in the test when possible. In the treatment effect test, the cytoreductive effect was determined based on comprehensive evaluation of target lesions (lesions having a size measurable at a slice width on CT and a larger size) and non-target lesions (all lesions not included in the target lesions), with reference to the RECIST evaluation method (Journal of the National Cancer Institute, 2000, Vol. 92, No. 3, 205-216). […] SD (stable disease) indicates a case where reduction of tumors was not enough to be determined as PR, but insufficient to be determined as PD; and the progression of tumors stopped and no exacerbation was observed.

[3] = test system: patients having a variety of solid cancers; assay: Clinical Phase I equivalent test, continuous intravenous infusion for 168 hours once every two weeks; type: in vivo, human
Procedure: as §1
The frequency of adverse events and treatment effect were studied in a case where a course was repeatedly performed in which the antitumor agent was administered by continuous intravenous infusion in an amount of 3.0 to 4.0 mg CNDAC (free base) per square meter of body surface area for a duration of 168 hours once every two weeks. Tested patients, evaluation methods, and evaluation standards are the same as those in the test in Example 1.

[4] = test system: human lung cancer line LX-1; assay: Antitumor effect, rapid vs continuous intravenous infusion in tumor-bearing rats; type: in vivo, rat; settings: continuous infusion 4.5 mg/kg/day for two weeks compared with rapid intravenous infusion (800 mg/kg/day Days 1, 5, 8, 12 or 20 mg/kg/day Days 1-5 and 8-12)
Procedure: The antitumor effect was studied in rapid intravenous infusion and continuous intravenous infusion of CNDAC in tumor-bearing rat models. FIG. 1 indicates the study results of the antitumor effect in rapid intravenous infusion and continuous intravenous infusion of CNDAC administered to tumor-bearing rats having the human lung cancer line LX-1.
CNDAC (free base) was administered by rapid intravenous infusion (rapidly injected into a caudal vein using a syringe) in an amount of 800 mg/kg/day on Days 1, 5, 8, and 12, or 20 mg/kg/day on Days 1 to 5 and 8 to 12. Alternatively, CNDAC was administered by continuous intravenous infusion (continuously injected under the skin for 24 hours using a subcutaneous implantation constant-speed pump) in an amount of 4.5 mg/kg/day for two weeks. Relative tumor volume (a ratio of tumor volume on Day 1 of administration and that on Day 14 of administration) was obtained in a CNDAC administered group and a non-administered group (control group) of each administration method, and the obtained relative tumor volume was compared.

[5] = test system: human breast cancer and colon cancer lines; assay: Antitumor effect, rapid vs continuous intravenous infusion in tumor-bearing rat models, further lines; type: in vivo
[6] = test system: human pancreatic cancer line PAN-4; assay: Antitumor effect of continuous intravenous infusion in tumor-bearing rats; type: in vivo, rat; settings: two-week continuous infusion 4.5 mg/kg/day Days 1 to 14 compared with 24-hour continuous infusion 36 mg/kg/day Day 1
Procedure: (§2) A relation between the antitumor effect and side effect (body weight suppression) was studied in a continuous intravenous infusion of CNDAC administered to tumor-bearing rats having the human pancreatic cancer line PAN-4. FIGS. 3 and 4 indicate the results.
(§3) CNDAC was administered by continuous intravenous infusion (continuously injected under the skin for 24 hours using a subcutaneous implantation constant-speed pump) in an amount of 36 mg/kg/day on Day 1, or 4.5 mg/kg/day on Days 1 to 14. Relative tumor volume was obtained and compared in a CNDAC administered group and a non-administered group (control group) of each administration method.

[7] = Side effect (body weight suppression) in tumor-bearing rats having PAN-4; type: in vivo, rat
Procedure: as §2, §3
Further, body weight reduction in the two-week continuous intravenous infusion group and 24-hour continuous intravenous infusion group was studied.

[8] = test system: human-derived tumor lines; assay: Antitumor tests using animal models, rapid intravenous infusion; type: in vivo; settings: rapid intravenous infusion for 10 consecutive days, five times a week for two weeks, or once a week for two weeks; majority of lines; regrowth after completion
Excerpt: However, the regrowth of tumors was observed after completion of the administration, and the cytoreductive effect was not necessarily shown. Further, increasing the dosage so as to increase the antitumor effect causes toxicity, including body weight suppression and leucopenia.

[9] = 3.0 mg/m^2, 336 hours once every three weeks
[10] = 4.0 mg/m^2, 168 hours once every two weeks

Compound: Nc1ccn([C@@H]2O[C@H](CO)[C@@H](O)C2(F)F)c(=O)n1 [gemcitabine, reference compound]
- tumor volume after completion of administration ([1]; gemcitabine continuous intravenous infusion 1.0 mg/kg/day for two weeks): not reduced after the administration was completed

- platelet reduction of Grade 4 ([2]; 4.0 mg/m^2, 336 hours once every three weeks): one out of the three cases
- febrile neutropenia of CTCAE Grade 3 ([2]; 4.0 mg/m^2, 336 hours once every three weeks, three cases): all cases
- febrile neutropenia of CTCAE Grade 3 [3, 10]: one case
- neutropenia of Grade 4 [3, 10]: one case
Compound: N#C[C@H]1[C@H](O)[C@@H](CO)O[C@H]1n1ccc(N)nc1=O [CNDAC, 4-amino-1-(2-cyano-2-deoxy-β-D-arabinofuranosyl)-2(1H)-pyrimidinone]
- adverse event requiring interruption of the administration ([2]; 2.0 mg/m^2, 336 hours once every three weeks): no adverse event was seen that required interruption of the administration
- reduction (tumor) in one SD case ([2]; 2.0 mg/m^2, 336 hours once every three weeks, one case): about 15%
- dose limiting toxicity (DLT) [2, 9]: not observed
- neutropenia of Grades 3 and 4 [2, 9]: found in the second case each of two courses
- efficacy (SD, stable disease), cases ([2]; 3.0 mg/m^2, 336 hours once every three weeks, RECIST): one out of the three cases
- dose limiting toxicity (DLT) observed, cases ([2]; 4.0 mg/m^2, 336 hours once every three weeks, three out of three cases): 100%
- adverse event requiring interruption of the administration ([3]; 3.0 mg/m^2, 168 hours once every two weeks): no adverse event was seen that required interruption of the administration
- efficacy (SD, stable disease), cases ([3]; 4.0 mg/m^2, 168 hours once every two weeks, two out of the three cases): 67%
- dose limiting toxicity (DLT) observed, cases ([3]; 4.0 mg/m^2, 168 hours once every two weeks, two out of three evaluable cases): 67%
- antitumor effect (relative tumor volume) [4]: high antitumor effect
- antitumor effect of continuous compared with rapid intravenous infusion [5]: The effect was exhibited
- tumor volume after completion of administration ([1]; CNDAC continuous intravenous infusion (36 mg/kg/day Days 1 and 8 or 4.5 mg/kg/day Days 1 to 14)): significantly reduced even after the administration was completed
- antitumor effect (relative tumor volume) [6]: significantly high antitumor effect
- body weight reduction at maximum ([7]; 24-hour continuous intravenous infusion group, 36 mg/kg/day on Day 1): 20.4%
- body weight reduction at maximum ([7]; two-week continuous intravenous infusion, 4.5 mg/kg/day on Days 1 to 14): 4.6%
- antitumor and antiproliferative effects [8]: strong antitumor and antiproliferative effects
